Laboratory results taken from ChEMBL document CHEMBL1201862, “PubChem BioAssay data set” (2004).
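Growth conditions: 96-well plates. Treatment: test compound, 48 hours, 5 concentrations. Analysis: linear interpolation between bracketing concentrations; unreached endpoints set to highest concentration. GI50: concentration for 50% inhibition of growth.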 Active and inactive are the calls of the source. Cut-off read from the data, not from the text of the source: active = GI50 up to about 1.1 µM and inactive = higher.

Experiments:
Test in all cases: inhibition of tumour cell growth, NCI panel, 48 h
A498 = test system: A498
U-251 = test system: U-251
HCT-15 = test system: HCT-15
SF-539 = test system: SF-539
Malme-3M = test system: Malme-3M
SNB-19 = test system: SNB-19
DMS-114 = test system: DMS-114
LOX IMVI = test system: LOX IMVI
UO-31 = test system: UO-31
M19-MEL = test system: M19-MEL
HOP-62 = test system: HOP-62
SNB-75 = test system: SNB-75
KM12 = test system: KM12
OVCAR-3 = test system: OVCAR-3
SF-295 = test system: SF-295
K562 = test system: K562
OVCAR-4 = test system: OVCAR-4
NCI-H522 = test system: NCI-H522
MDA-N = test system: MDA-N
NCI/ADR-RES = test system: NCI/ADR-RES

## CS(=O)(=O)NNS(=O)(=O)c1ccc(F)cc1
A498
  GI50: > 100 µM (inactive)
U-251
  GI50: > 100 µM (inactive)
HCT-15
  GI50: > 100 µM
SF-539
  GI50: > 100 µM (inactive)
Malme-3M
  GI50: > 100 µM (inactive)
SNB-19
  GI50: > 100 µM (inactive)
DMS-114
  GI50: > 100 µM (inactive)
LOX IMVI
  GI50: > 100 µM (inactive)
UO-31
  GI50: > 100 µM (inactive)
M19-MEL
  GI50: > 100 µM (inactive)
HOP-62
  GI50: > 100 µM (inactive)
SNB-75
  GI50: > 100 µM (inactive)
KM12
  GI50: > 100 µM (inactive)
OVCAR-3
  GI50: > 100 µM (inactive)
SF-295
  GI50: > 100 µM (inactive)
K562
  GI50: > 100 µM (inactive)
OVCAR-4
  GI50: > 100 µM (inactive)
NCI-H522
  GI50: > 100 µM (inactive)

## Cc1cccc(N2C(=O)C(Cl)=C(Cl)C2=O)c1
A498
  GI50: > 100 µM (inactive)
U-251
  GI50: > 100 µM (inactive)
HCT-15
  GI50: > 41.7 µM
SF-539
  GI50: > 100 µM (inactive)
Malme-3M
  GI50: > 42.1 µM (inactive)
SNB-19
  GI50: > 100 µM (inactive)
DMS-114
  GI50: > 67.5 µM (inactive)
LOX IMVI
  GI50: > 100 µM (inactive)
UO-31
  GI50: > 100 µM (inactive)
M19-MEL
  GI50: > 91.2 µM (inactive)
HOP-62
  GI50: > 100 µM (inactive)
SNB-75
  GI50: > 100 µM (inactive)
KM12
  GI50: > 100 µM (inactive)
OVCAR-3
  GI50: > 50.6 µM (inactive)
SF-295
  GI50: > 100 µM (inactive)
K562
  GI50: 35.3 µM (inactive)
OVCAR-4
  GI50: > 46.3 µM (inactive)
NCI-H522
  GI50: 8.91 µM (inactive)

## N=C(N)NS(=O)(=O)c1ccc(NC(=O)c2cccc3c(N)c4ccccc4nc23)cc1
A498
  GI50: > 100 µM (inactive)
U-251
  GI50: 99.8 µM (inactive)
HCT-15
  GI50: > 100 µM
SF-539
  GI50: > 100 µM (inactive)
Malme-3M
  GI50: > 100 µM (inactive)
SNB-19
  GI50: 26.7 µM (inactive)
DMS-114
  GI50: 61.2 µM (inactive)
LOX IMVI
  GI50: > 100 µM (inactive)
UO-31
  GI50: 55.8 µM (inactive)
M19-MEL
  GI50: > 100 µM (inactive)
HOP-62
  GI50: > 100 µM (inactive)
SNB-75
  GI50: 96.2 µM (inactive)
KM12
  GI50: 8.57 µM (inactive)
OVCAR-3
  GI50: 84.9 µM (inactive)
SF-295
  GI50: > 100 µM (inactive)
K562
  GI50: > 100 µM (inactive)
OVCAR-4
  GI50: > 100 µM (inactive)
NCI-H522
  GI50: > 100 µM (inactive)

## COC(=N)/C(=C1\OC(=N)C(c2ccc(Cl)cc2)=C1O)c1ccc(Cl)cc1
A498
  GI50: > 100 µM (inactive)
U-251
  GI50: > 100 µM (inactive)
HCT-15
  GI50: > 100 µM
SF-539
  GI50: > 100 µM (inactive)
Malme-3M
  GI50: > 100 µM (inactive)
SNB-19
  GI50: > 100 µM (inactive)
DMS-114
  GI50: > 100 µM (inactive)
LOX IMVI
  GI50: > 100 µM (inactive)
UO-31
  GI50: > 100 µM (inactive)
M19-MEL
  GI50: > 100 µM (inactive)
HOP-62
  GI50: > 100 µM (inactive)
SNB-75
  GI50: > 100 µM (inactive)
KM12
  GI50: > 100 µM (inactive)
OVCAR-3
  GI50: > 100 µM (inactive)
SF-295
  GI50: > 100 µM (inactive)
K562
  GI50: > 100 µM (inactive)
OVCAR-4
  GI50: > 100 µM (inactive)
NCI-H522
  GI50: > 100 µM (inactive)

## CCSc1nc2n(c(=S)n1)CCN2C
A498
  GI50: 19.3 µM (inactive)
U-251
  GI50: 19.8 µM (inactive)
HCT-15
  GI50: 17.5 µM
SF-539
  GI50: 19.2 µM (inactive)
Malme-3M
  GI50: 17.1 µM (inactive)
SNB-19
  GI50: 20.6 µM (inactive)
DMS-114
  GI50: 18.7 µM (inactive)
LOX IMVI
  GI50: 18.4 µM (inactive)
UO-31
  GI50: 16.3 µM (inactive)
M19-MEL
  GI50: 13.5 µM (inactive)
HOP-62
  GI50: 28.6 µM (inactive)
SNB-75
  GI50: 15.5 µM (inactive)
KM12
  GI50: 21.4 µM (inactive)
OVCAR-3
  GI50: 20 µM (inactive)
SF-295
  GI50: 21.9 µM (inactive)
K562
  GI50: 27.7 µM (inactive)
OVCAR-4
  GI50: 18.5 µM (inactive)
NCI-H522
  GI50: 5.4 µM (inactive)

## Cc1c(N)nc(C(CC(N)=O)NCC(N)C(N)=O)nc1C(=O)NC(C(=O)NC(C)C(O)C(C)C(=O)NC(C(=O)NCCc1nc(-c2nc(C(=O)NCCCNC(C)c3ccccc3)cs2)cs1)C(C)O)C(OC1OC(CO)C(O)C(O)C1OC1OC(CO)C(O)C(OC(N)=O)C1O)c1c[nH]cn1 (centres undefined)
A498
  GI50: 1.69 µM (inactive)
U-251
  GI50: 1.26 µM (inactive)
HCT-15
  GI50: 5.24 µM
SF-539
  GI50: 0.0233 µM (active)
Malme-3M
  GI50: 1.42 µM (inactive)
MDA-N
  GI50: > 50 µM (inactive)
SNB-19
  GI50: 8.39 µM (inactive)
DMS-114
  GI50: 0.59 µM (active)
LOX IMVI
  GI50: 0.108 µM (active)
NCI/ADR-RES
  GI50: 1.57 µM (inactive)
UO-31
  GI50: 0.283 µM (active)
M19-MEL
  GI50: 15 µM (inactive)
HOP-62
  GI50: 0.0998 µM (active)
SNB-75
  GI50: 0.296 µM (active)
KM12
  GI50: 16.6 µM (inactive)
OVCAR-3
  GI50: 8.05 µM (inactive)
SF-295
  GI50: 0.163 µM (active)
K562
  GI50: 10.1 µM (inactive)
OVCAR-4
  GI50: 7.4 µM (inactive)
NCI-H522
  GI50: 2.65 µM (inactive)

## COc1ccc(OC)c(NC(=O)C2=C(C)NC(C)=C(C(=O)Nc3cc(OC)ccc3OC)C2c2ccccc2)c1
A498
  GI50: > 100 µM (inactive)
U-251
  GI50: > 100 µM (inactive)
HCT-15
  GI50: > 100 µM
SF-539
  GI50: > 100 µM (inactive)
Malme-3M
  GI50: > 100 µM (inactive)
SNB-19
  GI50: > 100 µM (inactive)
DMS-114
  GI50: 96.2 µM (inactive)
LOX IMVI
  GI50: > 100 µM (inactive)
UO-31
  GI50: 35.6 µM (inactive)
M19-MEL
  GI50: > 100 µM (inactive)
HOP-62
  GI50: > 100 µM (inactive)
SNB-75
  GI50: 22.8 µM (inactive)
KM12
  GI50: 91.4 µM (inactive)
OVCAR-3
  GI50: > 100 µM (inactive)
SF-295
  GI50: 80.4 µM (inactive)
K562
  GI50: 83 µM (inactive)
OVCAR-4
  GI50: > 100 µM (inactive)
NCI-H522
  GI50: > 100 µM (inactive)

## O=c1[nH]cc(COCCO)c(=O)[nH]1
A498
  GI50: > 100 µM (inactive)
U-251
  GI50: > 100 µM (inactive)
HCT-15
  GI50: > 100 µM
SF-539
  GI50: > 100 µM (inactive)
Malme-3M
  GI50: > 100 µM (inactive)
SNB-19
  GI50: > 100 µM (inactive)
DMS-114
  GI50: > 100 µM (inactive)
LOX IMVI
  GI50: > 100 µM (inactive)
UO-31
  GI50: > 100 µM (inactive)
M19-MEL
  GI50: > 100 µM (inactive)
HOP-62
  GI50: > 100 µM (inactive)
SNB-75
  GI50: > 100 µM (inactive)
KM12
  GI50: > 100 µM (inactive)
OVCAR-3
  GI50: > 100 µM (inactive)
SF-295
  GI50: > 100 µM (inactive)
K562
  GI50: > 100 µM (inactive)
OVCAR-4
  GI50: > 100 µM (inactive)
NCI-H522
  GI50: > 100 µM (inactive)

## COC(=O)C1[C@H](c2cc(OC)c(OC)c(OC)c2)OC(=O)C1(C(=O)OC)C(=O)c1ccc2c(c1)OCO2 (some centres undefined)
A498
  GI50: > 100 µM (inactive)
U-251
  GI50: > 100 µM (inactive)
HCT-15
  GI50: > 100 µM
SF-539
  GI50: > 100 µM (inactive)
Malme-3M
  GI50: > 100 µM (inactive)
SNB-19
  GI50: > 100 µM (inactive)
DMS-114
  GI50: > 100 µM (inactive)
LOX IMVI
  GI50: > 100 µM (inactive)
UO-31
  GI50: > 100 µM (inactive)
M19-MEL
  GI50: > 100 µM (inactive)
HOP-62
  GI50: > 100 µM (inactive)
SNB-75
  GI50: > 100 µM (inactive)
KM12
  GI50: > 100 µM (inactive)
OVCAR-3
  GI50: > 100 µM (inactive)
SF-295
  GI50: > 100 µM (inactive)
K562
  GI50: > 100 µM (inactive)
OVCAR-4
  GI50: > 100 µM (inactive)
NCI-H522
  GI50: > 100 µM (inactive)

## COc1cc2c[n+](C)c3c4cc5c(cc4ccc3c2cc1OC)OCO5 [NITIDINE CHLORIDE]
A498
  GI50: 1.09 µM (active)
U-251
  GI50: 0.371 µM (active)
HCT-15
  GI50: > 100 µM
SF-539
  GI50: 1.78 µM (inactive)
Malme-3M
  GI50: 14.5 µM (inactive)
MDA-N
  GI50: 64 µM (inactive)
SNB-19
  GI50: 0.698 µM (active)
DMS-114
  GI50: 1.24 µM (inactive)
LOX IMVI
  GI50: 3.97 µM (inactive)
NCI/ADR-RES
  GI50: 27 µM (inactive)
UO-31
  GI50: > 61.4 µM (inactive)
M19-MEL
  GI50: 1.27 µM (inactive)
HOP-62
  GI50: 2.18 µM (inactive)
SNB-75
  GI50: 0.22 µM (active)
KM12
  GI50: 2.07 µM (inactive)
OVCAR-3
  GI50: 2.24 µM (inactive)
SF-295
  GI50: 5.93 µM (inactive)
K562
  GI50: 4.51 µM (inactive)
OVCAR-4
  GI50: 3.45 µM (inactive)
NCI-H522
  GI50: 0.24 µM (active)
